From paper PMC8359378 (British Journal of Clinical Pharmacology, 2021)
“Also recorded” adds a separate entry of the source.

Tests used:
[1] = tested on: healthy subjects; test: safety and tolerability; assay type: in vivo, human; details: for Headache TEAE, subjects / Muscle twitching TEAE, subjects / All TEAEs, subjects / Bleeding time prolonged TEAE, subjects / Dizziness TEAE, subjects: Part B, fed
[2] = target: factor XI coagulation activity (FXI:C) (Homo sapiens, UniProt P03951); test: factor XI coagulation activity; assay type: in vivo
Sequence of factor XI coagulation activity (FXI:C) (P03951 388-625 limits assumed): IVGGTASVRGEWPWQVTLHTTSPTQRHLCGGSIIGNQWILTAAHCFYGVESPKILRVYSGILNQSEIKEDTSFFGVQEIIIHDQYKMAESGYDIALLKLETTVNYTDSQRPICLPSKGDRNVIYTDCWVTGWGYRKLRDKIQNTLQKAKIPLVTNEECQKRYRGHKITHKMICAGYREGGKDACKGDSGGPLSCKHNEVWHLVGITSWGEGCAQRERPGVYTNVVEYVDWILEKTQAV
Sequence of factor XI coagulation activity (FXI:C) (P03951 19-387 partner limits assumed): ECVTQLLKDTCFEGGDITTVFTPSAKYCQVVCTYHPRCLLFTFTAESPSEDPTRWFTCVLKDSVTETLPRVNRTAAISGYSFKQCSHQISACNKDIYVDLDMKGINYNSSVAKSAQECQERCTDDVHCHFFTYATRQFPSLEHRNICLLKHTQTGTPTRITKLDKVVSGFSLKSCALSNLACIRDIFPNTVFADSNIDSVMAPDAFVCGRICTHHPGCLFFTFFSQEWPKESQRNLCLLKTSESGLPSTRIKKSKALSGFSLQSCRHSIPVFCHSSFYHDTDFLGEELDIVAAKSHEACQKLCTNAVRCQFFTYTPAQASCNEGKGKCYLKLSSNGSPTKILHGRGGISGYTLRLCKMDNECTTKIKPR

[3] = tested on: activated partial thromboplastin time (aPTT); test: activated partial thromboplastin time; assay type: in vivo, human
[4] = tested on: prothrombin time [PT], international normalised ratio [INR]; test: prothrombin time; assay type: in vivo, human; details: any of the dose levels tested in Part A or Part B
[5] = target: human FXIa; details: competitive and reversible inhibition; cited from earlier work
[6] = tested on: monkey nail‐cut bleeding model; details: preclinical; cited from earlier work
[7] = tested on: monkey arteriovenous shunt model; details: preclinical; cited from earlier work
[8] = tested on: FXa, FIXa, FXIIa, FVIIa, thrombin, tPA, urokinase and plasmin; details: cited from earlier work
[9] = Part A, single dose 1 mg, fasted
[10] = Part A, single dose 5 mg, fasted
[11] = Part A, single dose 20 mg, fasted
[12] = Part A, single dose 80 mg, fasted
[13] = Part A, single dose 150 mg, fasted
[14] = Part A, single dose 300 mg, fasted
[15] = Part A, single dose of 20–300 mg
[16] = Part B, 80 mg QD for 14 days, fed
[17] = Part B, 150 mg QD for 14 days, fed
[18] = Part B, first dose of 80, 150 and 250 mg

Compound: Nc1ccc(-c2nc([C@H]3CCc4cc(-c5cc(Cl)ccc5-n5cnnn5)cc(=O)n43)c(F)[nH]2)c(F)n1 [ONO‐7684]
- Headache TEAE, subjects ([1]; 80 mg QD for 14 days): 1 (16.7) n (%)
- Muscle twitching TEAE, subjects ([1]; 80 mg QD for 14 days): 1 (16.7) n (%)
- All TEAEs, subjects ([1]; 150 mg QD for 14 days): No TEAEs
- Bleeding time prolonged TEAE, subjects ([1]; 150 mg QD for 14 days): 0 n (%)
- Dizziness TEAE, subjects ([1]; 150 mg QD for 14 days): 0 n (%)
- Headache TEAE, subjects ([1]; 150 mg QD for 14 days): 0 n (%)
- Muscle twitching TEAE, subjects ([1]; 150 mg QD for 14 days): 0 n (%)
- All TEAEs, subjects ([1]; 150 mg QD for 14 days, listed as ONO 7684): 0 n (%)
- All TEAEs, subjects ([1]; 250 mg QD for 14 days): No TEAEs
- Bleeding time prolonged TEAE, subjects ([1]; 250 mg QD for 14 days): 0 n (%)
- Dizziness TEAE, subjects ([1]; 250 mg QD for 14 days): 0 n (%)
- Headache TEAE, subjects ([1]; 250 mg QD for 14 days): 0 n (%)
- Muscle twitching TEAE, subjects ([1]; 250 mg QD for 14 days): 0 n (%)
- All TEAEs, subjects ([1]; 250 mg QD for 14 days, listed as ONO 7684): 0 n (%)
- bleeding risk ([1]; Parts A and B): no evidence to suggest a bleeding risk; also recorded: no evidence of a bleeding risk
- severe or serious TEAEs, TEAEs leading to discontinuation ([1]; Parts A and B): no severe or serious TEAEs
- tolerability ([1]; all dose levels, single and repeated doses): well tolerated at all dose levels tested
- time of maximal inhibition of FXI:C post‐dose ([2]; Part A, 80 mg fed group): approximately 8 hours
- time of return of FXI:C and aPTT to near baseline levels post‐dose ([2]; Part A, 80, 150 and 300 mg): ≤ 72 h
- time the effects on FXI:C and aPTT were maintained ([2]; Part A, 80, 150 and 300 mg): up to 24 hours
- FXI:C Day 1 24 hours RTB, mean ± SD [2, 9]: 0.95 ± 0.141
- FXI:C Day 1 24 hours inhibition, mean ± SD [2, 9]: 5 ± 14.1%
- FXI:C Maximum on treatment inhibition, mean ± SD [2, 9]: 13 ± 7.7%
- FXI:C Day 1 24 hours RTB, mean ± SD [2, 10]: 0.95 ± 0.049
- FXI:C Day 1 24 hours inhibition, mean ± SD [2, 10]: 5 ± 4.9%
- FXI:C Maximum on treatment inhibition, mean ± SD [2, 10]: 10 ± 2.6%
- FXI:C Minimum on treatment RTB, mean ± SD [2, 10]: 0.90 ± 0.026
- FXI:C Day 1 24 hours RTB, mean ± SD [2, 11]: 0.95 ± 0.185
- FXI:C Day 1 24 hours inhibition, mean ± SD [2, 11]: 5 ± 18.5%
- FXI:C Maximum on treatment inhibition, mean ± SD [2, 11]: 29 ± 4.8%
- FXI:C Minimum on treatment RTB, mean ± SD [2, 11]: 0.71 ± 0.048
- FXI:C Day 1 24 hours RTB, mean ± SD [2, 12]: 0.61 ± 0.051
- FXI:C Day 1 24 hours inhibition, mean ± SD [2, 12]: 39 ± 5.1%
- FXI:C Maximum on treatment inhibition, mean ± SD [2, 12]: 69 ± 7.0%
- FXI:C Minimum on treatment RTB, mean ± SD [2, 12]: 0.31 ± 0.070
- FXI:C Day 1 24 hours RTB, mean ± SD ([2]; Part A, single dose 80 mg, fed): 0.61 ± 0.066
- FXI:C Day 1 24 hours inhibition, mean ± SD ([2]; Part A, single dose 80 mg, fed): 39 ± 6.6%
- FXI:C Maximum on treatment inhibition, mean ± SD ([2]; Part A, single dose 80 mg, fed): 54 ± 8.9%
- FXI:C Minimum on treatment RTB, mean ± SD ([2]; Part A, single dose 80 mg, fed): 0.46 ± 0.089
- FXI:C Day 1 24 hours RTB, mean ± SD [2, 13]: 0.48 ± 0.057
- FXI:C Maximum on treatment inhibition, mean ± SD [2, 13]: 78 ± 3.4%
- FXI:C Minimum on treatment RTB, mean ± SD [2, 13]: 0.22 ± 0.034
- FXI:C Day 1 24 hours RTB, mean ± SD [2, 14]: 0.26 ± 0.089
- FXI:C Day 1 24 hours inhibition, mean ± SD [2, 14]: 74 ± 8.9%
- time of maximal inhibition of FXI:C post‐dose [2, 15]: approximately 4 hours
- FXI:C Minimum on treatment RTB, mean ± SD [2, 16]: 0.25 ± 0.077
- FXI:C Day 1 24 hours RTB, mean ± SD ([2]; Part B, 80 mg QD, fed): 0.67 ± 0.035
- FXI:C Day 14 24 hours RTB, mean ± SD ([2]; Part B, 80 mg QD, fed): 0.39 ± 0.111
- FXI:C Minimum on treatment RTB, mean ± SD [2, 17]: 0.15 ± 0.052
- FXI:C Day 1 24 hours RTB, mean ± SD ([2]; Part B, 150 mg QD, fed): 0.48 ± 0.112
- FXI:C Day 14 24 hours RTB, mean ± SD ([2]; Part B, 150 mg QD, fed): 0.27 ± 0.096
- FXI:C Day 1 24 hours RTB, mean ± SD ([2]; Part B, 250 mg QD, fed): 0.33 ± 0.065
- FXI:C Day 14 24 hours RTB, mean ± SD ([2]; Part B, 250 mg QD, fed): 0.14 ± 0.053
- time of maximal inhibition of FXI:C post‐dose [2, 18]: approximately 4 hours
- time of maximal prolongation of aPTT post‐dose ([3]; Part A, 80 mg fed group): approximately 8 hours
- aPTT Day 1 24 hours RTB, mean ± SD [3, 9]: 1.00 ± 0.034
- aPTT Day 1 24 hours RTB, mean ± SD [3, 10]: 1.10 ± 0.061
- aPTT Maximum on treatment RTB, mean ± SD [3, 10]: 1.18 ± 0.054
- aPTT Day 1 24 hours RTB, mean ± SD [3, 11]: 1.15 ± 0.119
- aPTT Maximum on treatment RTB, mean ± SD [3, 11]: 1.40 ± 0.016
- aPTT Day 1 24 hours RTB, mean ± SD [3, 12]: 1.54 ± 0.111
- aPTT Maximum on treatment RTB, mean ± SD [3, 12]: 1.83 ± 0.172
- aPTT Day 1 24 hours RTB, mean ± SD ([3]; Part A, single dose 80 mg, fed): 1.61 ± 0.128
- aPTT Maximum on treatment RTB, mean ± SD ([3]; Part A, single dose 80 mg, fed): 1.74 ± 0.163
- aPTT Day 1 24 hours RTB, mean ± SD [3, 13]: 1.63 ± 0.031
- aPTT Maximum on treatment RTB, mean ± SD [3, 13]: 1.97 ± 0.078
- aPTT Day 1 24 hours RTB, mean ± SD [3, 14]: 1.99 ± 0.139
- time of maximal prolongation of aPTT post‐dose [3, 15]: approximately 4 hours
- aPTT Maximum on treatment RTB, mean ± SD [3, 16]: 2.07 ± 0.152
- aPTT Day 1 24 hours RTB, mean ± SD ([3]; Part B, 80 mg QD, fed): 1.53 ± 0.119
- aPTT Day 14 24 hours RTB, mean ± SD ([3]; Part B, 80 mg QD, fed): 1.87 ± 0.163
- aPTT Maximum on treatment RTB, mean ± SD [3, 17]: 2.35 ± 0.275
- aPTT Day 1 24 hours RTB, mean ± SD ([3]; Part B, 150 mg QD, fed): 1.78 ± 0.174
- aPTT Day 14 24 hours RTB, mean ± SD ([3]; Part B, 150 mg QD, fed): 2.06 ± 0.261
- aPTT Day 1 24 hours RTB, mean ± SD ([3]; Part B, 250 mg QD, fed): 2.06 ± 0.091
- aPTT Day 14 24 hours RTB, mean ± SD ([3]; Part B, 250 mg QD, fed): 2.53 ± 0.146
- time of maximal aPTT prolongation post‐dose [3, 18]: approximately 4 hours
- effect on INR [4]: did not significantly affect
- effect on PT [4]: did not significantly affect
- Ki [5]: 2 nM
- bleeding time [6]: did not prolong bleeding time
- thrombus formation [7]: significantly inhibited thrombus formation
- selectivity for FXIa relative to other coagulation/fibrinolysis factors [8]: highly selective for FXIa
